“And” between values parts separate entries of the source, which are not always exact repeats. Equal entries are not always repeated.
Tested on: collagen-induced arthritis in Lewis rats
Experiment: Collagen-induced arthritis (CIA) model in rats: body weight, paw volume, clinical scores, clinical observations; on Detailed Clinical Scores, left forelimb: key of the grades not given here; on Detailed Clinical Scores, left hind limb: key of the grades not given here; on Detailed Clinical Scores, right forelimb: key of the grades not given here; on Detailed Clinical Scores, right hind limb: key of the grades not given here; on Detailed Clinical Scores, score: key of the grades not given here; on Overall clinical score: key of the grades not given here
Conditions: for Detailed Clinical Scores, right hind limb / Detailed Clinical Scores, score / Detailed Clinical Scores, left forelimb / Detailed Clinical Scores, left hind limb / Detailed Clinical Scores, right forelimb: per animal ID; for Overall clinical score: individual CIA rats; for Animal paw volume / Animal body weight percent change: Group 3 (CIA + Dexamethasone); for Animal paw volume: individual animals 1-8; for Animal paw volume percent change (%): individual animals, CIA + reference compound (Groups 3, 4); for Average animal body weight percent change: CIA + compound

## C[C@@H]1C[C@H]2[C@@H]3CCC4=CC(=O)C=C[C@]4(C)[C@@]3(F)[C@@H](O)C[C@]2(C)[C@@]1(O)C(=O)CO [dexamethasone]
Day 14, CIA
  Detailed Clinical Scores, right hind limb: 0
  Detailed Clinical Scores, score: 0
Day 14
  Overall clinical score: 0
Day 15, L paw
  Animal paw volume: 1.36 mL and 1.28 mL and 1.33 mL and 1.27 mL
  Animal paw volume percent change (%): −8.92% and −7.28% and −2.17%
Day 15, R paw
  Animal paw volume: 1.36 mL and 1.27 mL (2×) and 1.32 mL
  Animal paw volume percent change (%): −6.74% and −4.25% and −1.45%
Day 15
  Average animal body weight percent change: 0.43%
  Overall clinical score: 0
Day 15, CIA
  Detailed Clinical Scores, left forelimb: 0
  Detailed Clinical Scores, left hind limb: 0
  Detailed Clinical Scores, right forelimb: 0
  Detailed Clinical Scores, right hind limb: 0
  Detailed Clinical Scores, score: 0
Day 16
  Average animal body weight percent change: −0.57%
Day 17
  Average animal body weight percent change: 0.62%
Day 18, L paw
  Animal paw volume: 1.28 mL and 1.45 mL and 1.31 mL and 1.29 mL and 1.34 mL and 1.30 mL
  Animal paw volume percent change (%): −5.20% and −6.51% and 4.33%
Day 18, R paw
  Animal paw volume: 1.28 mL and 1.44 mL and 1.31 mL and 1.29 mL (2×) and 1.34 mL
  Animal paw volume percent change (%): −4.49% and −4.63% and 4.36%
Day 18
  Average animal body weight percent change: 1.02%
  Overall clinical score: 0
Day 18, CIA rats
  Detailed Clinical Scores, left forelimb: 0
  Detailed Clinical Scores, left hind limb: 0
  Detailed Clinical Scores, right forelimb: 0
  Detailed Clinical Scores, right hind limb: 0
  Detailed Clinical Scores, score: 0
Day 19, L paw
  Animal paw volume: 1.28 mL (2×) and 1.44 mL and 1.30 mL (2×) and 1.33 mL
  Animal paw volume percent change (%): −5.20% and −6.90% and 3.61%
Day 19, R paw
  Animal paw volume: 1.27 mL (2×) and 1.44 mL and 1.31 mL and 1.32 mL and 1.30 mL
  Animal paw volume percent change (%): −5.24% and −6.18%
Day 19
  Average animal body weight percent change: 1.53%
  Overall clinical score: 0
Day 19, CIA rats
  Detailed Clinical Scores, left forelimb: 0
  Detailed Clinical Scores, left hind limb: 0
  Detailed Clinical Scores, right forelimb: 0
  Detailed Clinical Scores, right hind limb: 0
  Detailed Clinical Scores, score: 0
Day 20
  Average animal body weight percent change: 1.66%
Day 21, L paw
  Animal paw volume: 1.43 mL and 1.31 mL (2×) and 1.30 mL (2×)
  Animal paw volume percent change (%): −6.32% and −6.90%
Day 21, R paw
  Animal paw volume: 1.43 mL and 1.31 mL and 1.30 mL (2×) and 1.32 mL
  Animal paw volume percent change (%): −5.99% and −6.18%
Day 21
  Average animal body weight percent change: 1.30%
  Overall clinical score: 0
Day 21, CIA rats
  Detailed Clinical Scores, left forelimb: 0
  Detailed Clinical Scores, left hind limb: 0
  Detailed Clinical Scores, right forelimb: 0
  Detailed Clinical Scores, right hind limb: 0
  Detailed Clinical Scores, score: 0
Day 0, individual animals
  Animal body weight percent change: 0.00%
Day 1, individual animals
  Animal body weight percent change: 0.66% and −7.41% and −1.72% and −2.37% and −1.20% and −6.21%
Day 2, individual animals
  Animal body weight percent change: −0.66% and −6.79% and 1.15% and −1.78% and −3.01% and −8.07%
Day 3, individual animals
  Animal body weight percent change: −1.99% and −11.11% and 0.57% and −2.96% and −2.41% and −9.94%
Day 4, individual animals
  Animal body weight percent change: −2.65% and −9.26% and −2.30% and −5.33% and −6.02%
Day 5, individual animals
  Animal body weight percent change: −2.65% and −8.02% and −5.17% and −2.96% and −4.82%
Day 6, individual animals
  Animal body weight percent change: −2.65% and −6.17% and −1.72% and −4.73% and −6.63%
Day 7, individual animals
  Animal body weight percent change: −0.66% and −5.56% and 2.30% and −4.14% and −3.61%
Day 15, individual animals
  Animal body weight percent change: 9.93% and −3.09% and 2.30% and 0.59% and −1.20% and −6.83% and 2.33% and −0.63%
Day 16, individual animals
  Animal body weight percent change: 3.97% and −5.56% and 7.47% and −0.59% and −4.22% and −8.70% and 1.16% and 1.88%
Day 17, individual animals
  Animal body weight percent change: 5.96% and −4.32% and 8.05% and −2.37% and 0.60% and −6.83% and −1.16% and 5.00%
Day 18, individual animals
  Animal body weight percent change: 3.97% and −6.17% and 8.62% and −2.37% and 0.00% and −5.59% and 4.07% and 5.63%
Day 19, individual animals
  Animal body weight percent change: 7.28% and −9.26% and 10.34% and 0.59% and 1.20% and −5.59% and 5.81% and 1.88%
Day 20, individual animals
  Animal body weight percent change: 7.95% and −3.70% and 5.75% and 2.37% and 0.60% and −4.35% and 4.65% and 0.00%
Day 21, individual animals
  Animal body weight percent change: 8.61% and −3.70% and 7.47% and 0.00% and −3.01% and −5.59% and 2.91% and 3.75%
